Like-named read-outs stand apart in the source and are kept apart here. No end group written: not given here.
Molecular target: T1, wild-type GPR103 (Homo sapiens, UniProt Q96P65)
T1 construct: we used human full-length QRFPR-encoding plasmids; expressed in transfected cells; host or cells: HEK293 cells, pCAGGS vector
T1 sequence (Q96P65 1-431): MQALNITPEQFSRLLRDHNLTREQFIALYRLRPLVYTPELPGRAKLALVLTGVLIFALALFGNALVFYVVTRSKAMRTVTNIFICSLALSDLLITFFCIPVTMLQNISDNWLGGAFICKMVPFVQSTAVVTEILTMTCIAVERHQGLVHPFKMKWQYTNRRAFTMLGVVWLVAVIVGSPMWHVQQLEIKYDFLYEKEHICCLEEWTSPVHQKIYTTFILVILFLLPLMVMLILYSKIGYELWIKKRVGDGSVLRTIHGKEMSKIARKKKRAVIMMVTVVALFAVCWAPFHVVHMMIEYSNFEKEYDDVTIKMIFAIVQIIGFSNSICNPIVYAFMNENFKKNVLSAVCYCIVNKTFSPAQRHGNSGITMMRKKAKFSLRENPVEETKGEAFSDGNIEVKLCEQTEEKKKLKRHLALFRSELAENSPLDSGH
Experiment: TGFα shedding assay, HEK293 cells; WT titrated to lower expression (1:1 to 1:50)
Format: cell-based
Procedure: For the TGFα shedding assay and the flow cytometry analysis, we used human full-length QRFPR-encoding plasmids. Specifically, GPR103 was N-terminally modified with an HA signal sequence followed by a FLAG epitope and then a flexible linker ([…]; the FLAG epitope is underlined) and inserted into the pCAGGS vector. Plasmid encoding GPR103 mutants were generated using Quickchange Site-Directed Mutagensis kit (Agilent).
The TGFα shedding assay was performed as described previously with minor modifications. Plasmid transfection was performed in a 6-well plate with a mixture of 500 ng (per well in a 6-well plate) AP-TGFα-encoding plasmid and 200 ng GPR103-encoding plasmid. After 1-day culture, the transfected cells were harvested by trypsinization, pelleted by centrifugation at 190 × g for 5 min, and washed once with 5 mM HEPES (pH 7.4)-containing Hank’s Balanced Salt Solution (HBSS). After centrifugation, the cells were resuspended in 8 mL of the HEPES-containing HBSS. The cell suspension was seeded in a 96-well culture plate (cell plate) at a volume of 90 μL (per well hereafter) and incubated in a 37 °C incubator with 5% CO2 for 30 min. […] After spinning the cell plates at 190 × g for 2 min, 80 μL of conditioned media was transferred to an empty 96-well plate (conditioned media (CM) plate). Then, 80 μL of AP reaction solution (10 mM p-nitrophenylphosphate (p-NPP), 120 mM Tris-HCl (pH 9.5), 40 mM NaCl, and 10 mM MgCl2) was dispensed into the cell plates and the CM plates. Absorbance at 405 nm of the plates was measured using a microplate reader (SpectraMax 340 PC384, Molecular Devices) before and after 1-h incubation at room temperature. Ligand-induced AP-TGFα release was calculated by subtracting spontaneous AP-TGFα release signal from ligand-induced AP-TGFα release signal. The AP-TGFα release signals were fitted to a four-parameter sigmoidal concentration–response curve, using the Prism 10 software (GraphPad Prism). For each replicate experiment, the pEC50 parameter (negative logarithmic values of EC50 values) of the individual GPR103 mutants were normalized to that of the wild-type GPR103 performed in parallel, and resulting ∆pEC50 values were used to denote ligand response activity of the mutants. […]
Exp. le vel: WT (1:5 0)Exp. le vel: WT (1:5 0)Exp. le vel: WT (1:5 0)Exp. le vel: WT (1:2 0)Exp. le vel: WT (1:2 0)Exp. le vel: WT (1:1 0) […]
L1 4N - t e r mA F2 5N - t e r mA I 2 6N - t e r mA Y 2 9N - t e r mA C 9 82 .5 7A T10 22 .6 1A Exp . l eve l: WT (1 :5)Exp . l evel : >WT (1 :1)Exp. le vel: WT (1:2 0)Exp. le vel: WT (1:2 0)Exp. le vel: WT (1:5 0)Exp . l eve l: WT (1 :1) […]
Exp. le vel: WT (1:1 0)Exp. le vel: WT (1:2 0) C 1 1 83 .2 5AExp. le vel: WT (1:5 0)Exp. le vel: WT (1:5 0)Exp. le vel: WT (1:2 0)Exp . l eve l: WT (1 :5) […]
Exp. le vel: WT (1:5 0)Exp. le vel: WT (1:1 0)Exp. le vel: WT (1:5 0) E203ECL2AExp . l evel : >WT (1 :1)Exp. le vel: WT (1:5 0)Exp. le vel: WT (1:5 0) […]
Exp . l eve l: WT (1 :1) F28Exp. le vel: WT (1:5 0) C 2 8 56 .4 7AExp. le vel: WT (1:2 0) WExp. le vel: WT (1:2 0) F28Exp. le vel: WT (1:5 0)Exp . l evel : >WT (1 :1) […]
Exp. le vel: WT (1:5 0)Exp. le vel: WT (1:5 0) C 3 2 77 .4 8AExp . l eve l: WT (1 :5)Exp . l evel : >WT (1 :1)Exp . l evel : >WT (1 :1) […]
Suppl eme nt ary Figure 1 | Mutational analysis of GPR103. […]
mutants. Data are presented as mean values ± SEM, normally n=3-5; dots), each performed in triplicate. b-d Cell-surface expression (b) and QRFP26-in-duced activation of GPR103 (c, d) were analyzed by the flow cytometry and the TGFα shedding assay, respectively. From the concentration–response curves (a), Emax (c) and ΔpEC50 (d) values relative to the wild type were calculated. Colors in the mutant bars indicate an expression level matching to that of titrated wild type. Statistical analyses were performed using the ordinary one-way ANOVA followed by Dunnett tests with the expression-matched […]

Emax (HEK293, WT (1:2), mean, read-out: Emax): 102% | Emax (HEK293, WT (1:2), n = 5, read-out: Emax): 102 ± 1.4% | Emax (HEK293, WT (1:5), mean, read-out: Emax): 98% | Emax (HEK293, WT (1:10), mean, read-out: Emax): 85.2% | Emax (HEK293, WT (1:10), n = 5, read-out: Emax): 86.5 ± 1.5% | Emax (HEK293, WT (1:20), mean, read-out: Emax): 68.7% | Emax (HEK293, WT (1:20), n = 5, read-out: Emax): 69.6 ± 1.9% | Emax (HEK293, WT (1:50), mean, read-out: Emax): 40% | Emax (HEK293, WT (1:50), n = 3, read-out: Emax): 38.9 ± 2.7% | EC50 (WT (1:1), n = 5): 0.00513 µM | Emax (WT (1:2), Exp. #1): 99.44 % WT | Emax (WT (1:2), Exp. #2): 98.59 % WT | Emax (WT (1:2), Exp. #3): 107.25 % WT | Emax (WT (1:2), Exp. #4): 101.53 % WT | Emax (WT (1:2), Exp. #5): 103.42 % WT | EC50 (WT (1:2), n = 5): 0.00661 µM | Emax (WT (1:5), Exp. #1): 95.01 % WT | Emax (WT (1:5), Exp. #2): 93.02 % WT | Emax (WT (1:5), Exp. #3): 103.20 % WT | Emax (WT (1:5), Exp. #4): 97.64 % WT | Emax (WT (1:5), Exp. #5): 100.97 % WT | EC50 (WT (1:5), n = 5): 0.0126 µM | Emax (WT (1:10), Exp. #1): 87.43 % WT | Emax (WT (1:10), Exp. #2): 82.73 % WT | Emax (WT (1:10), Exp. #3): 90.71 % WT | Emax (WT (1:10), Exp. #4): 84.24 % WT | Emax (WT (1:10), Exp. #5): 81.03 % WT | EC50 (WT (1:10), n = 5): 0.0151 µM | Emax (WT (1:20), Exp. #1): 70.65 % WT | Emax (WT (1:20), Exp. #2): 70.10 % WT | Emax (WT (1:20), Exp. #3): 74.01 % WT | EC50 (WT (1:20), n = 5): 0.0214 µM | Emax (WT (1:50), Exp. #3): 46.11 % WT | Emax (WT (1:50), Exp. #4): 34.55 % WT | Emax (WT (1:50), Exp. #5): 39.32 % WT | EC50 (WT (1:50), n = 3): 0.0537 µM
Substance: TSGPLGNLAEELNGYSRKKGGFSFRF-NH2 [QRFP26]
